Data published in PMC12677843, “Multidisciplinary Preclinical Investigations on Ferrocenyl, Ruthenocenyl, and Benzyl Derivatives of Niridazole as New Drug Candidates against Schistosomiasis” (Chemmedchem, 2025).
Like-named read-outs stand apart in the source and are kept apart here.

Legend:
adult S. mansoni = test: In vitro drug sensitivity assay on adult S. mansoni (microscopic viability scoring); assay type: cell-based, Schistosoma mansoni; conditions: for EC50: Schistosoma mansoni, 37 °C, 5% CO2
Method: Figure 3 In vitro activity at 50 µM of the 12 compounds on adult S. mansoni. Adult schistosomes were incubated in culture media for 72 h at 37 °C and 5% CO2 with either compound (50 µM) or a DMSO (0.5%) control. The viability of the worms was microscopically evaluated and scored (0—3, in 0.5 steps) every 24 h. Results are from two independent experiments, each performed in duplicate. Drug activities were normalized to the DMSO controls. Data represent mean ± SD in percentage of DMSO control. […]
In vitro evaluation on adult S. mansoni
After a week for acclimatization to the new environment with controlled conditions (temperature: 22 °C ± 2 °C, humidity: 50 % ± 10 %, 12:12 h light/dark photocycle), four-week-old female NMRI mice (Charles River, Sulzfeld, Germany) were subcutaneously infected with approximately 100 cercariae to establish the S. mansoni infection. In the S. mansoni infected mice the worms were allowed to develop for 7 weeks into the adult stage, before they were extracted from the mesenteric veins of the euthanized mice. The adult worms were placed into RPMI 1640 (Gibco, Waltham MA, USA) medium supplemented with 1 % penicillin/streptomycin mixture and 5 % iFCS at 37 °C and 5 % CO 2. The drug sensitivity assay was set up in a 24-well plate with two wells containing each two pairs of S. mansoni worms per compound and concentration.
The final volume per well was 2 mL, containing the culture medium and the corresponding amount of drug dissolved in DMSO. The maximum concentration tested was 50 µM, corresponding to 0.5 % DMSO, to which all the other wells were adapted […]
to, so that all test concentrations contained always the same amount of DMSO.
Additionally, 2 wells with negative controls containing only DMSO and the culture medium were included. After an incubation period of 72 h at 37 °C and 5 % CO 2, the worms were microscopically evaluated. The drug effect was determined 24, 48 and 72 h post-exposure based on the phenotype of the adult worms, using a viability scale ranging from three referring to viable, motile worms with no change in their tegument to zero standing for the death of the worms.
All described in vitro studies with mice involved, were conducted at the Swiss Tropical and Public Health Institute, first in Basel, later in Allschwil, and had the approval by the corresponding veterinary authorities of the Canton Basel-Stadt (permit no. 2070)

[1] = test system: S. mansoni newly transformed schistosomula (NTS); test: In vitro evaluation on newly transformed schistosomula (NTS); assay type: cell-based, Schistosoma mansoni
Method: 2. Experimental section for biological experiments
Stock solutions of the test compounds
Stock solution of a concentration of 10 mM in pure DMSO (Sigma-Aldrich, Switzerland) were prepared of the 12 compounds, these stock solutions were used for all in vitro evaluations from activity tests in S. mansoni to the cytotoxic determinations in HUH7 hepatocyte-derived carcinoma cells, and in SH-SY5Y neuroblastoma cells.
The solutions were thoroughly vortexed and sonicated to enable a good dissolution of the compounds and homogenous stock solutions.
2.1 In vitro evaluations in S. mansoni
In vitro evaluation on newly transformed schistosomula (NTS)
To obtain newly transformed schistosomula (NTS) the lifecycle of S. mansoni (strain originates from West Africa, Liberia) is maintained at the Swiss Tropical and Public Health Institute (Swiss TPH). As previously described, cercariae are collected from infected Biomphalaria glabrata snails and then mechanically transformed into NTS. 8 After HBSS (Gibco, Waltham MA, USA) washing to get rid of the detached tails, the NTS were kept overnight (min. 12 h, max. 24 h) in culture medium at 37 °C and 5 % CO2 to complete their transformation process, before the drug sensitivity assay was started. The drug assays were performed in the same culture medium consisting of medium M199 (Gibco, Waltham MA, USA) supplemented with 5 % v/v inactivated fetal calf serum (iFCS; Bioconcept AG, Allschwil, Switzerland), 1% antibiotics mixture developed by Mäser et al., 9 and 1 % penicillin 10,000 U/mL, and streptomycin 10 mg/mL solution (Sigma-Aldrich, Buchs, Switzerland). The assay was performed in a 96-well plate, with 30−40 NTS per well in a final volume of 250 μL. NTS incubated in culture medium containing 0.5 % DMSO but no drug served as negative controls.
Microscopic evaluation was performed after 24, 48 and 72 h of incubation of the parasites at 37 °C and 5 % CO 2. Their overall viability was scored from 0 (death) to 3 (full viability) by a phenotypic screening method based on their motility, morphology, […]
and granularity. […]

O=C1NCCN1c1ncc([N+](=O)[O-])s1 [Niridazole, niridazole]
drug effect at 50 µM on adult S. mansoni (adult S. mansoni; 50 µM, 72 h incubation, normalized to DMSO control, active if ≥60%): 83%
EC50 (adult S. mansoni; 24 h, 24 h drug exposure, read-out: EC50 on adult S. mansoni, 24 h): > 50 µM
EC50 (adult S. mansoni; 48 h, 48 h drug exposure, read-out: EC50 on adult S. mansoni, 48 h): 7.8 µM
EC50 (adult S. mansoni; 72 h, 72 h drug exposure, read-out: EC50 on adult S. mansoni, 72 h): 5.6 µM
EC50 ([1]; Schistosoma mansoni, 72 h incubation, 37 °C, 5% CO2): > 50 µM
drug effect at 50 µM on S. mansoni NTS ([1]; highest tested concentration 50 µM): not impaired
